The record followed here is patent publication US6872742B2, “Substituted cyclic amine metalloprotease inhibitors” (The Procter & Gamble Company, priority 1996, dated 2005).

What all share (assay type): in vivo
Test [1] has as its system asthma sufferer. As to the kind of experiment: Example E: inhalation aerosol used by an asthma sufferer. To be noted: 5.0% w/v aerosol, 0.01 mL sprayed into the mouth while inhaling. The method, then:
The compounds of the invention are useful to prepare compositions for the treatment of ailments and the like. […] In each case the compounds formula I may be substituted for the example compound shown below with similar results. […] The skilled practitioner will appreciate that the examples provide guidance and may be varied based on condition and the patient. A inhalation aerosol composition, according to the present invention, is made comprising: An asthma sufferer sprays 0.01 mL via a pump actuator into the mouth while inhaling.

The test system of test [2] is human subject suffering from osteoarthritis. As to the kind of experiment: Example B: capsule given daily to a subject suffering from osteoarthritis. The following applies: capsule containing 70 mg daily for 5 years, 90 kg person. The source says:
The compounds of the invention are useful to prepare compositions for the treatment of ailments and the like. […] In each case the compounds formula I may be substituted for the example compound shown below with similar results.
The skilled practitioner will appreciate that the examples provide guidance and may be varied based on condition and the patient.
A capsule for oral administration, according to the present invention, is made comprising:
A human subject weighing 90 kg (198 lbs), suffering from osteoarthritis, is treated by a method of this invention. Specifically, for 5 years, a capsule containing 70 mg of the compound of Example 3 is administered daily to said subject.

Test [3] relates to patient suffering from chemical burns. As to the kind of experiment: Example D: topical composition applied by a patient suffering from chemical burns. To be noted: 0.20% w/v topical composition at each dressing change (b.i.d.). The source says: (§1) The compounds of the invention are useful to prepare compositions for the treatment of ailments and the like. […] In each case the compounds formula I may be substituted for the example compound shown below with similar results. […] The skilled practitioner will appreciate that the examples provide guidance and may be varied based on condition and the patient. A topical composition for local administration, according to the present invention, is made comprising: A patient suffering from chemical burns applies the composition at each dressing change (b.i.d.).

Test [4] relates to human subject with a premetastatic tumor. As to the kind of experiment: Example G: parenteral suspension injected next to a premetastatic tumor. The following applies: 100 mg/ml suspension, approximately 2.0 ml injected beside the tumor twice daily for approximately 30 days. The source says: The compounds of the invention are useful to prepare compositions for the treatment of ailments and the like. […] In each case the compounds formula I may be substituted for the example compound shown below with similar results. […] The skilled practitioner will appreciate that the examples provide guidance and may be varied based on condition and the patient. A composition for parenteral administration is made comprising: The above ingredients are mixed, forming a suspension. Approximately 2.0 ml of the suspension is administered, via injection, to a human subject with a premetastatic tumor. The injection site juxtaposes the tumor. This dosage is repeated twice daily, for approximately 30 days.

Test [5] deals with human subject suffering from rheumatoid arthritis. Description: Example A: tablets given orally to a subject suffering from rheumatoid arthritis. To be noted: tablet with 15 mg compound, three tablets per day orally for 2 years, 60 kg person.
From the text: as §1, with “A tablet” for “A topical”, “for oral” for “for local”, “A human subject weighing 60 kg (132 lbs),” for “A patient”, “from rheumatoid arthritis, is treated by a method of this invention. Specifically, for 2 years, a regimen of three tablets per day is administered orally to said subject.” for “from chemical burns applies the composition at each dressing change (b.i.d.).”

Test [6] deals with patient having deep corneal abrasion. Description: Example C: saline-based eye drop applied by a patient having deep corneal abrasion. To be noted: 5% w/w drop applied to each eye twice a day. The source says: The compounds of the invention are useful to prepare compositions for the treatment of ailments and the like. […] In each case the compounds formula I may be substituted for the example compound shown below with similar results. […] The skilled practitioner will appreciate that the examples provide guidance and may be varied based on condition and the patient. A saline-based composition for local administration, according to the present invention, is made comprising: A patient having deep corneal abrasion applies the drop to each eye twice a day.

Consider `COc1ccc(S(=O)(=O)N2C[C@@H](O)C[C@@H]2C(=O)NO)cc1` [Example 2, (1N)-4-Methoxyphenylsulfonyl-(2R)-N-hydroxycarboxamido-(4S)-hydroxypyrrolidine], for which the asthma symptoms result in test [1] was “Asthma symptoms are diminished”.

As to `COc1ccc(S(=O)(=O)N2C[C@H](O)C[C@H]2C(=O)NO)cc1` [Example 3, (1N)-4-Methoxyphenylsulfonyl-(2S)-N-hydroxycarboxanido-(4R)-hydroxypyrrolidine], the “orthoscopy finding at the end of the treatment period (erosion/fibrillation of the articular cartilage)” value in test [2] is given as “no further advancement of erosion/fibrillation of the articular cartilage”. In addition, the scarring entry in test [3] is recorded as “Scarring is substantially diminished”.

As for `COc1ccc(S(=O)(=O)N2C[C@@H](O)C[C@H]2C(=O)NO)cc1` [Example 4, (1N)-4-Methoxyphenylsulfonyl-(2S)-N-hydroxycarboxanido-(4S)-hydroxy-pyrrolidine], in test [4], the “symptoms of the disease after 30 days” value was “symptoms of the disease subside”.

For the molecule `COc1ccc(S(=O)(=O)N2C[C@H](Sc3nccn3C)C[C@@H]2C(=O)NO)cc1` [Example 9, (1N)-4-Methoxyphenylsulfonyl-(2R)-N-hydroxycarboxado-(4R)-[(1N)-methyl-2-mercaptoimidazyl]-pyrrolidine], the “findings on examination at the end of the treatment period (inflammation, mobility, pain)” value in test [5] was “reduced inflammation, and improved mobility without concomitant pain”.

Consider `COc1ccc(S(=O)(=O)N2C[C@@H](Oc3ccccc3)C[C@@H]2C(=O)NO)cc1` [Example 13, (1N)-4-Methoxyphenylsulfonyl-(2R)-N-hydroxycarboxamido-(4S)-phenoxypyrrolidine], for which the corneal healing result in test [6] was “Healing is speeded, with no visual sequelae”.
